Source: PMC10743086, “Immunofluorescence-Based Assay for High-Throughput Analysis of Multidrug Resistance Markers in Non-Small Cell Lung Carcinoma Patient-Derived Cells” (Diagnostics, 2023)

Assays:
Type in all cases: cell-based, human
[1] = test system: ABCG2 expression in cancer cells (CK8/18+); experiment: Immunofluorescence assay of ABCG2 expression in patient-derived NSCLC cultures; settings: 7 days
Method: (§1) Tissue samples were collected during surgery, and the NSCLC diagnosis, histological grade, stage, necrosis, and lymph node invasion status were determined by histopathological analysis. […] The surgical specimens were placed in a sterile tube containing antibiotic-antimycotic solution (Sigma-Aldrich Chemie GmbH, Taufkirchen, Germany) and immediately transported to the research laboratory for further processing.
(§2) Upon arrival, the tissue was manually chopped with a surgical blade in a Petri dish under sterile conditions. The samples were cut into 3–5 mm pieces and further dissociated using the Tumor Dissociation Kit (Miltenyi Biotec, Bergisch Gladbach, Germany). The Tumor Dissociation Kit was used to dissociate the cells from the tumor tissue according to the manufacturer’s instructions. The samples were incubated in a 37 °C orbital shaker (KS 4000 ic control, IKA, Königswinter, Germany) at 300 rpm for 90 min. After incubation, the dissociated tissue was placed in DMEM/Ham’s F12 (1:3 ratio) growth medium supplemented with 5% fetal bovine serum (Corning, NY, USA), antibiotic-antimycotic solution, 4 µg/mL hydrocortisone (Sigma-Aldrich Chemie GmbH, Taufkirchen, Germany), 1 µg/mL insulin (Sigma-Aldrich Chemie GmbH, Taufkirchen, Germany), 10 ng/mL epidermal growth factor (BioLegend, San Diego, CA, USA), and 24 µg/mL adenine (Sigma-Aldrich Chemie GmbH, Taufkirchen, Germany). The DMEM and Ham’s F12 growth media were purchased from Sigma-Aldrich Chemie GmbH (Taufkirchen, Germany).
(§3) The dissociated tissue was cultured in T-25 cell culture flasks until cell attachment was observed before the medium was replaced. If no cell attachment was achieved within 7 days, the sample was discarded. Successful patient-derived cultures were maintained at 37 °C in a humidified atmosphere with 5% CO2 and grown to confluence before undergoing further experiments. […] Partial trypsinization was performed by detaching the fibroblast-like cells with 1 mL of 0.05% trypsin for 1 min at 37 °C, followed by 2 min at room temperature (RT).
(§4) Vinorelbine and pemetrexed were purchased from Selleckchem (Houston, TX, USA). Carboplatin, cisplatin, docetaxel, etoposide, gemcitabine, gefitinib, and paclitaxel were purchased from Sigma-Aldrich Chemie GmbH (Taufkirchen, Germany). The cisplatin, carboplatin, and gemcitabine were dissolved in sterile water, while the etoposide, docetaxel, vinorelbine, paclitaxel, gefitinib, and pemetrexed were dissolved in DMSO and stored at −20 °C. Before treatment, all the stock solutions were freshly diluted in sterile water.
(§5) The primary cells were seeded in black, clear bottom 384-well cell culture microplates (Thermo Fisher Scientific, Waltham, MA, USA) in 50 µL of cell growth medium at a density of 1000 cells per well. The compounds were administered 72 h after seeding. The treatment lasted 7 days.
(§6) The immunofluorescence assay for the quantification of MDR markers was optimized to distinguish cancer cells from stromal cells using a cytokeratin 8/18 (CK8/18) antibody cocktail. The cells were fixed with 4% paraformaldehyde for 20 min at RT and washed three times with PBS using the Wellwash Versa microplate washer (Thermo Fisher Scientific, Waltham, MA, USA). The cells were then blocked with 2% bovine serum albumin (BSA) in PBS for 1 h at RT. […] Co-immunostaining with antibodies against MDR markers was performed to detect the presence of ABCB1, ABCC1, and ABCG2 in both the cancer and stromal cells. […] The secondary antibodies were incubated with the cells at RT for 2 h in the dark. […] Finally, the cells were washed three times with PBS and stored at 4 °C in the dark before imaging.

MRC-5 cells = experiment: Cytotoxicity by immunofluorescence cell scoring (cell counts), normal fibroblasts; settings: 24 h treatment
Method: as §4
(§7) The compounds were administered 48 h after seeding. The treatment lasted 24 h.
as §6
(§8) The fluorescently labeled cells were imaged using the ImageXpress Pico Automated Cell Imaging System (Molecular Devices, San Jose, CA, USA) with a 4x objective after determining the appropriate exposure time for each illumination filter. Analysis of the obtained images was performed using CellReporterXpress software v. 2.8.2.669 (Molecular Devices). The cytotoxicity of the compounds was determined using the Cell Scoring Analysis Protocol. […] Expression of MDR markers was determined using the Multi-Wavelength Cell Scoring Analysis Protocol.

[2] = test system: ABCC1 expression in cancer cells (CK8/18+); experiment: Immunofluorescence assay of ABCC1 expression in patient-derived NSCLC cultures
Method: as §1, §2, §3, §4, §5, §6

[3] = test system: ABCB1 expression in NCI-H460 cells; experiment: Immunofluorescence assay of MDR marker ABCB1 expression; settings: five concentrations, 24 h
Method: as §4, §7, §6, §8

[4] = test system: ABCB1 expression in NCI-H460/R cells; experiment: as above; settings: five concentrations, 24 h
Method: as §4, §7, §6, §8

[5] = test system: ABCB1 expression in MRC-5 cells; experiment: as above; settings: five concentrations, 24 h
Method: as §4, §7, §6, §8

[6] = test system: Cancer cells (CK8/18+) of patient-derived NSCLC cultures; experiment: Cytotoxicity in patient-derived NSCLC cultures, cancer cells; settings: 7 days treatment
Method: as §1, §2, §3, §4, §5, §6

NCI-H460 cells = experiment: Cytotoxicity by immunofluorescence cell scoring (cell counts), NSCLC cell line; settings: 24 h treatment
Method: as §4, §7, §6, §8

[7] = test system: Non-cancer cells (CK8/18-) of patient-derived NSCLC cultures; experiment: Cytotoxicity in patient-derived NSCLC cultures, non-cancer cells; settings: 7 days treatment
Method: as §1, §2, §3, §4, §5, §6

NCI-H460/R cells = experiment: Cytotoxicity by immunofluorescence cell scoring (cell counts), multidrug-resistant NSCLC cell line; settings: 24 h treatment
From the text: Human non-small cell lung carcinoma cells (NCI-H460) were purchased from the American Type Culture Collection (Rockville, MD, USA), and normal embryonic lung fibroblasts (MRC-5) were purchased from the European Collection of Authenticated Cell Cultures (Salisbury, UK). Multidrug-resistant NCI-H460/R cells overexpressing ABCB1 were selected from the NCI-H460 cells after selective pressure with doxorubicin [21]. All the cell lines were maintained in MEM medium (Sigma-Aldrich Chemie GmbH, Taufkirchen, Germany) supplemented with 10% FBS, 2 mM L-glutamine, and antibiotic-antimycotic solution. All the cell lines were maintained at 37 °C in a humidified atmosphere with 5% CO2.
as §4, §7, §6, §8

[8] = test system: ABCB1 expression in cancer cells (CK8/18+); experiment: Immunofluorescence assay of ABCB1 expression in patient-derived NSCLC cultures; settings: 7 days
Method: as §1, §2, §3, §4, §5, §6

[9] = test system: ABCC1 expression in non-cancer cells (CK8/18-); experiment: Immunofluorescence assay of ABCC1 expression in patient-derived NSCLC cultures, non-cancer cells; settings: Table S2
Method: as §1, §2, §3, §4, §5, §6

[10] = culture TR58, cancer cells (CK8/18+)
[11] = culture TR64, cancer cells (CK8/18+)
[12] = culture TR65, cancer cells (CK8/18+)
[13] = culture TR84, cancer cells (CK8/18+)
[14] = culture TR87, cancer cells (CK8/18+)
[15] = MRC-5 (co-culture with NCI-H460)
[16] = MRC-5 (co-culture with NCI-H460/R)
[17] = NCI-H460 (co-culture with MRC-5)
[18] = NCI-H460/R (co-culture with MRC-5)
[19] = culture TR58, non-cancer cells (CK8/18-)
[20] = culture TR64, non-cancer cells (CK8/18-)
[21] = culture TR65, non-cancer cells (CK8/18-)
[22] = culture TR84, non-cancer cells (CK8/18-)
[23] = culture TR87, non-cancer cells (CK8/18-)

## N.N.O=C([O-])C1(C(=O)[O-])CCC1.[Pt+2] [Carboplatin]
[1]; [10]
  ABCG2 expression: increase (An increase in ABCB1, ABCC1, or ABCG2 expression of at least 20% at a minimum of one concentration is shown in the table.)
[1]; [11]
  ABCG2 expression: increase (An increase in ABCB1, ABCC1, or ABCG2 expression of at least 20% at a minimum of one concentration is shown in the table.)
[1]; [12]
  ABCG2 expression: increase (An increase in ABCB1, ABCC1, or ABCG2 expression of at least 20% at a minimum of one concentration is shown in the table.)
[1]; [13]
  ABCG2 expression: increase (An increase in ABCB1, ABCC1, or ABCG2 expression of at least 20% at a minimum of one concentration is shown in the table.)
[1]; [14]
  ABCG2 expression: increase (An increase in ABCB1, ABCC1, or ABCG2 expression of at least 20% at a minimum of one concentration is shown in the table.)
MRC-5 cells; [15]
  IC50: > 100 µM
MRC-5 cells; [16]
  IC50: > 100 µM
MRC-5 cells; MRC-5 monoculture
  IC50: > 100 µM
[2]; culture TR58, cancer cells (CK8/18+), 7 days
  ABCC1 expression: no change
[2]; culture TR64, cancer cells (CK8/18+), 7 days
  ABCC1 expression: increase (An increase in ABCB1, ABCC1, or ABCG2 expression of at least 20% at a minimum of one concentration is shown in the table.)
[2]; culture TR65, cancer cells (CK8/18+), 7 days
  ABCC1 expression: increase (An increase in ABCB1, ABCC1, or ABCG2 expression of at least 20% at a minimum of one concentration is shown in the table.)
[2]; culture TR84, cancer cells (CK8/18+), 7 days
  ABCC1 expression: increase (An increase in ABCB1, ABCC1, or ABCG2 expression of at least 20% at a minimum of one concentration is shown in the table.)
[2]; culture TR87, cancer cells (CK8/18+), 7 days
  ABCC1 expression: increase (An increase in ABCB1, ABCC1, or ABCG2 expression of at least 20% at a minimum of one concentration is shown in the table.)
[3]; [17]
  ABCB1 Expression: no change
[3]; NCI-H460 monoculture
  ABCB1 Expression: no change
[4]; [18]
  ABCB1 Expression: no change
[4]; NCI-H460/R monoculture
  ABCB1 Expression: no change
[5]; [15]
  ABCB1 Expression: no change
[5]; [16]
  ABCB1 Expression: no change
[5]; MRC-5 monoculture
  ABCB1 Expression: no change
[6]; [10]
  IC50: 60.8 µM
[6]; [11]
  IC50: 39 µM
[6]; [12]
  IC50: 22.5 µM
[6]; [13]
  IC50: 8.15 µM
[6]; [14]
  IC50: 43.3 µM
NCI-H460 cells; [17]
  IC50: > 100 µM
NCI-H460 cells; NCI-H460 monoculture
  IC50: > 100 µM
[7]; [19]
  IC50: 27.3 µM
[7]; [20]
  IC50: 12.8 µM
[7]; [21]
  IC50: 2.16 µM
[7]; [22]
  IC50: 1.28 µM
[7]; [23]
  IC50: 22.9 µM
NCI-H460/R cells; [18]
  IC50: > 100 µM
NCI-H460/R cells; NCI-H460/R monoculture
  IC50: > 100 µM
[8]; [10]
  ABCB1 Expression: no change
[8]; [11]
  ABCB1 Expression: increase (An increase in ABCB1, ABCC1, or ABCG2 expression of at least 20% at a minimum of one concentration is shown in the table.)
[8]; [12]
  ABCB1 Expression: increase (An increase in ABCB1, ABCC1, or ABCG2 expression of at least 20% at a minimum of one concentration is shown in the table.)
[8]; [13]
  ABCB1 Expression: increase (An increase in ABCB1, ABCC1, or ABCG2 expression of at least 20% at a minimum of one concentration is shown in the table.)
[8]; [14]
  ABCB1 Expression: increase (An increase in ABCB1, ABCC1, or ABCG2 expression of at least 20% at a minimum of one concentration is shown in the table.)

## COc1cc2ncnc(Nc3ccc(F)c(Cl)c3)c2cc1OCCCN1CCOCC1 [gefitinib]
[9]; [19]
  ABCC1 expression: no change
[9]; [20]
  ABCC1 expression: no change
[9]; [21]
  ABCC1 expression: no change
[9]; [22]
  ABCC1 expression: no change
[9]; [23]
  ABCC1 expression: no change
[2]; culture TR58, cancer cells (CK8/18+), Table S2
  ABCC1 expression: no change
[2]; culture TR64, cancer cells (CK8/18+), Table S2
  ABCC1 expression: no change
[2]; culture TR65, cancer cells (CK8/18+), Table S2
  ABCC1 expression: increase (an increase in ABCC1 expression of at least 20% at a minimum of one concentration is shown in the Table.)
[2]; culture TR84, cancer cells (CK8/18+), Table S2
  ABCC1 expression: increase (an increase in ABCC1 expression of at least 20% at a minimum of one concentration is shown in the Table.)
[2]; culture TR87, cancer cells (CK8/18+), Table S2
  ABCC1 expression: no change
